Experiment [1] addresses T1, 5-LOX (Homo sapiens, UniProt P09917).
T1 construct: the endogenous LOXs were captured on an anti‐LOX antibody precoated 96‐well plate; endogenous in cells; host or cells: A549 cell lysate
T1 sequence (P09917 1-674): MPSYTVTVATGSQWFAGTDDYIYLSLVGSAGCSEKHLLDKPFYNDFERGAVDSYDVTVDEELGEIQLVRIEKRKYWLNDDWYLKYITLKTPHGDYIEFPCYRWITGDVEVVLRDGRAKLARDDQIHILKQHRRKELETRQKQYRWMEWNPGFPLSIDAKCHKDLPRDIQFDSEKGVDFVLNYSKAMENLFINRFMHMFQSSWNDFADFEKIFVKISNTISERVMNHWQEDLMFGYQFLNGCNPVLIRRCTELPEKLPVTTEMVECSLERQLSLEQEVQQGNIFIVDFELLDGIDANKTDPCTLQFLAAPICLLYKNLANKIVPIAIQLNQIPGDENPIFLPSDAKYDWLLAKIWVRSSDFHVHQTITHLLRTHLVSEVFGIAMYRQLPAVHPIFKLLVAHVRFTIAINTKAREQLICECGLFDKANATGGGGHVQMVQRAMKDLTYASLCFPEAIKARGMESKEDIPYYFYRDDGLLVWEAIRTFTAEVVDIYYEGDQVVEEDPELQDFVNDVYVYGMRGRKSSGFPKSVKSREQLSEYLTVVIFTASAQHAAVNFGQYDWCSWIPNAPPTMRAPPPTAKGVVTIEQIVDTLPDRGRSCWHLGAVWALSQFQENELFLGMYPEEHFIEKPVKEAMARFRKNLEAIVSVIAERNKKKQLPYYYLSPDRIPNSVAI
The experiment can be described thus: Sandwich ELISA of Labelox B biotinylation in A549 cell lysate, 5-LOX capture. The format is biochemical. The settings on record: HRP-streptavidin detection, read-out: EC50 of labeling. The procedure: Labelox B efficiently labels endogenous LOXs. Lipoxygenase labeling by Labelox B was investigated using cell‐based assays. As a first step, labeling efficiency was estimated in intact RAW 264.7 macrophage cells that were treated with Labelox B in concentrations ranging between 1 μM and 100 μM with incubation times between 0.5 h and 6 h. […] As a next step, a sandwich ELISA assay was established in order to find proof that probe Labelox B is indeed labeling proteins with lipoxygenase enzyme activity. Towards this aim, A549 cell lysates were treated with sub‐micromolar to micromolar concentrations of Labelox B. Subsequently, the endogenous LOXs were captured on an anti‐LOX antibody precoated 96‐well plate followed by detection of Labelox B mediated biotinylation using HRP‐conjugated streptavidin. […] Furthermore, probe Labelox B enabled visualization of localized LOX activity in living cells (Figure 2 c). […] The fluorescence intensity increased with increasing doses of Labelox B and labeling was observed throughout the cells in the cytoplasm and the nucleus of A549.
Figure 2 Labelox B labels endogenous LOXs in a dose‐ and time‐dependent manner. a, b) Western blot analysis of Labelox B labeled LOXs in intact RAW 264.7 for indicated doses and time points. […] The pictures were captured by a Leica DM4000b fluorescence microscope.

For experiment [2], the target named is T2, 15-LOX-1 (Homo sapiens, UniProt P16050).
T2 sequence (P16050 1-662): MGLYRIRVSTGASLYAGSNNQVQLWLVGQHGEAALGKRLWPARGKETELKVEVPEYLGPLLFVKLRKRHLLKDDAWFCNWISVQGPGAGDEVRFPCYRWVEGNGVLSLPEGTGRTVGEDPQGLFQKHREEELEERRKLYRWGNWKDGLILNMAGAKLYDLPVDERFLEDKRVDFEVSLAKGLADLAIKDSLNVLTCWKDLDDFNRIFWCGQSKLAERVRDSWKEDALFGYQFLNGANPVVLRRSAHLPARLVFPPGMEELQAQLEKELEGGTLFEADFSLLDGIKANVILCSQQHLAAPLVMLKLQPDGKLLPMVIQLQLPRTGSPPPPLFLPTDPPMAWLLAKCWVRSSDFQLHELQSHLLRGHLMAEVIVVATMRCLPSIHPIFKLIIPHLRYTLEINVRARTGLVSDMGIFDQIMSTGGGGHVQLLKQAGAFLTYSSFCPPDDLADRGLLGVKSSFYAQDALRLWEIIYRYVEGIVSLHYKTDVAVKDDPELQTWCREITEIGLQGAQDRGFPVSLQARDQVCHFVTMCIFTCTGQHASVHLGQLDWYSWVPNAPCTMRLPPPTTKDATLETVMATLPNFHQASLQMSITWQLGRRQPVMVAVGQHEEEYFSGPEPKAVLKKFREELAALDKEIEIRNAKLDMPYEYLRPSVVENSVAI
The experiment can be described thus: Kitz-Wilson kinetic analysis of 15-LOX-1 inactivation. In kind it is biochemical. Details: His-tag (N); made in house; host or cells: E. coli BL21(DE3). As for the experimental part: Subsequently, Kitz‐Wilson analysis was performed to distinguish the equilibrium binding constant (K i) from the rate of covalent inactivation (k i). The different bis‐alkynes provided remarkably constant k i’s that varied by a factor 3 or less, whereas the K i’s varied by a factor 200 (Table 1). […] Improved non‐covalent binding is an important characteristic for activity‐based labeling because it implies improved specific recognition properties to the target of interest. Therefore, inhibitor 3 has been used for further development of a probe for activity‐based labeling of lipoxygenase activity with 15‐LOX‐1 as a reference enzyme. For convenient discussion, we named inhibitor 3, “Labelox B”. […]
described in the IC50 determination assay. Michaelis-Menten plots, Lineweaver-Burk plots, Km, and Vmax, are generated using GraphPad Prism 8.3.0.
1.5. Kits-Wilson kinetic analysis
The probes inhibit the 15-LOX-1 enzyme with a two-step reaction. First, a probe binds to an enzyme to get a reversible complex, E*I. The dissociation constant of inhibitor (Ki) is from the formation of E*I. Then, the probe forms a covalent bond with the enzyme, which generates an irreversible complex, E-I. The inactivation rate constant (ki) is to describe the rate of E-I generation. To determine these inactivation parameters, Kitz-Wilson analysis was employed. The procedure has been detailed previously

In experiment [3] the test system is LOXs. On the set-up: method as in PMID 17942241, PMID 16500106. The settings on record: redox inhibitor for LOXs; read-out: IC50 in vitro; cited from earlier work.

`CCCCCC#CCC#CCOC(=O)CCCC[C@@H]1SC[C@@H]2NC(=O)N[C@@H]21` [Labelox B (3)]: in experiment [1], the EC50 was around 3.5 µM. Also, the “k i (rate of covalent inactivation)” value in experiment [2] worked out at 0.0191 ± 0.0038 min⁻¹. In addition, the Ki in experiment [2] (read-out: K i (equilibrium binding constant)) was determined as 0.5 ± 0.14 µM.
On to `O=c1cc(-c2ccccc2)oc2cc(O)c(O)c(O)c12` [Baicalein], for which the 50% inhibitory concentration (IC50) in experiment [3] is below 4 µM.

The values above are taken from paper PMC8518382, “Identification of a Bromodomain‐like Region in 15‐Lipoxygenase‐1 Explains Its Nuclear Localization” (Angewandte Chemie (International Ed. in English), 2021).
